Assay: wn = mass fraction of the nth substance listed
Settings: Liquid

Cl.N [ammonium chloride (NH4Cl)] + N
mass density [kg/m3]
Settings | 303.15 K | 313.15 K | 323.15 K | 333.15 K | 343.15 K | 353.15 K | 363.15 K | 373.15 K
10000 kPa, w1 = 0.1133 | 668.2 | 655.5 | 642.7 | 628.8 | 613.4 | 597.6 | 581.2 | 568.8
10000 kPa, w1 = 0.2224 | 729.3 | 716 | 707.1 | 694.9 | 682.5 | 669.2 | 654.5 | 644.4
10000 kPa, w1 = 0.3134 | 787.8 | 778.1 | 767.7 | 756.3 | 745.7 | 735.4 | 724.1 | 713.8
10000 kPa, w1 = 0.4285 | 833 | 825.9 | 817.4 | 809.5 | 801.9 | 793.4 | 784.2 | 776.9
10000 kPa, w1 = 0.5068 | 873.3 | 867.9 | 860 | 853.2 | 846 | 838 | 830.5 | 823.8
15000 kPa, w1 = 0.1133 | 673.3 | 660.5 | 648.4 | 634.7 | 620.3 | 605.7 | 588.8 | 577.2
15000 kPa, w1 = 0.2224 | 733.1 | 720.5 | 711.9 | 699.8 | 688.1 | 675.5 | 661.6 | 651.7
15000 kPa, w1 = 0.3134 | 791.5 | 783.6 | 772.6 | 761.1 | 751.6 | 741.5 | 731.7 | 721.3
15000 kPa, w1 = 0.4285 | 836.1 | 828.4 | 820.9 | 812.4 | 805.2 | 796.6 | 789.2 | 781.3
15000 kPa, w1 = 0.5068 | 877.7 | 871.7 | 864.7 | 857.9 | 850.6 | 844 | 837 | 830.3
20000 kPa, w1 = 0.1133 | 677.8 | 665.3 | 654.2 | 640.8 | 627.1 | 612.9 | 596.4 | 585.5
20000 kPa, w1 = 0.2224 | 736.6 | 725.1 | 715.8 | 704.3 | 692.5 | 680.2 | 667.3 | 657.3
20000 kPa, w1 = 0.3134 | 795.8 | 786.8 | 776.3 | 765.1 | 755 | 746.5 | 736.8 | 726.2
20000 kPa, w1 = 0.4285 | 838.2 | 831 | 823.4 | 814.4 | 807.6 | 799.5 | 792 | 784.1
20000 kPa, w1 = 0.5068 | 880.4 | 874.4 | 867.9 | 860.5 | 854.2 | 847.5 | 840.5 | 834
25000 kPa, w1 = 0.1133 | 682.2 | 670.1 | 658.7 | 646.7 | 633.1 | 619.7 | 603.4 | 593
25000 kPa, w1 = 0.2224 | 740.1 | 729.5 | 719.7 | 708.7 | 696.9 | 684.7 | 672.2 | 662.3
25000 kPa, w1 = 0.3134 | 798.5 | 789.7 | 779.4 | 768.2 | 758.3 | 750.3 | 741.5 | 730.7
25000 kPa, w1 = 0.4285 | 840.8 | 833.5 | 825.9 | 817.9 | 810 | 801.9 | 794.3 | 786.5
25000 kPa, w1 = 0.5068 | 883.2 | 876.6 | 870.6 | 863.1 | 857.4 | 850.1 | 843.5 | 837
30000 kPa, w1 = 0.1133 | 686.7 | 674.6 | 663.4 | 652.3 | 638.6 | 626.1 | 610.6 | 600.3
30000 kPa, w1 = 0.2224 | 743.8 | 734.2 | 723.4 | 712.9 | 701.2 | 689.2 | 677.3 | 667.2
30000 kPa, w1 = 0.3134 | 801.6 | 792.5 | 782.4 | 770.8 | 761.1 | 754 | 745.7 | 734.6
30000 kPa, w1 = 0.4285 | 842.9 | 835.6 | 827.4 | 820.4 | 812 | 804.2 | 796.4 | 788.7
30000 kPa, w1 = 0.5068 | 885.4 | 878.8 | 872.8 | 865.3 | 859.7 | 852.7 | 846 | 839.6

From the NIST ThermoML archive (doi:10.1021/je8001267)
